Experiment: mn = molality of the nth substance listed, in mol/kg
Details: 101 kPa, Liquid, Linear variable-path acoustic interferometer

C[N+](C)(C)C.[Br-] [tetramethylammonium bromide] + O
speed of sound [m/s]
Details | 283.15 K | 298.15 K | 318.15 K | 338.15 K
m1 = 0.05 | 1451 | 1499.7 | 1538.7 | 1555.6
m1 = 0.075 | 1452.9 | 1500.3 | 1540 | 1556.2
m1 = 0.1 | 1455 | 1502.5 | 1541.1 | 1556.9
m1 = 0.2 | 1462.1 | 1508.1 | 1545.8 | 1560.9
m1 = 0.3 | 1469.5 | 1513.7 | 1550.4 | 1564.6
m1 = 0.5 | 1483.1 | 1524.7 | 1559.3 | 1571
m1 = 0.75 | 1499.8 | 1537.9 | 1569.3 | 1579.2
m1 = 1 | 1515.7 | 1550.8 | 1578.6 | 1587.3
m1 = 1.5 | 1544.7 | 1575.1 | 1596.6 | 1602
m1 = 2 | 1571.1 | 1597.2 | 1613.1 | 1615.7
m1 = 2.5 | 1595.4 | 1617 | 1628.8 | 1628.9
m1 = 3 | 1617.4 | 1633.7 | 1644.7 | 1641.3

CCCC[N+](CCCC)(CCCC)CCCC.[Br-] [tetrabutylammonium bromide] + O
speed of sound [m/s]
Details | 283.15 K | 298.15 K | 318.15 K | 338.15 K
m1 = 0.05 | 1463 | 1508.4 | 1544.6 | 1558.6
m1 = 0.075 | 1470.4 | 1514.2 | 1548.4 | 1561.2
m1 = 0.1 | 1477.8 | 1520.2 | 1552.9 | 1564.2
m1 = 0.2 | 1506.2 | 1541.4 | 1567.4 | 1573.6
m1 = 0.3 | 1532.5 | 1561 | 1580.7 | 1582.4
m1 = 0.5 | 1579 | 1596.3 | 1604.7 | 1597
m1 = 0.75 | 1628.2 | 1632.7 | 1627.3 | 1610.3
m1 = 1 | 1667.1 | 1661.2 | 1644.1 | 1619.5
m1 = 1.5 | 1718.2 | 1697.4 | 1663.3 | 1626.6
m1 = 2 | 1743.4 | 1713.7 | 1669.5 | 1625
m1 = 2.5 | 1752.2 | 1718 | 1668.5 | 1619.5
m1 = 3 | 1753.9 | 1717.6 | 1668.3 | 1615.4

[2H]O[2H] [water-d2] + CCCC[N+](CCCC)(CCCC)CCCC.[Br-]
speed of sound [m/s]
Details | 283.15 K | 298.15 K | 318.15 K | 338.15 K
m2 = 0.05 | 1366.8 | 1414 | 1451.5 | –
m2 = 0.075 | 1375.9 | 1421.1 | 1456.5 | 1470.5
m2 = 0.1 | 1384.4 | – | 1461.4 | 1474.3
m2 = 0.2 | 1419.1 | 1453.9 | 1479.9 | 1486.6
m2 = 0.3 | 1450.2 | 1478.2 | – | 1498.1
m2 = 0.5 | 1506 | – | 1525.8 | 1518.2
m2 = 0.75 | 1562.5 | 1562.4 | 1554.8 | 1536.6
m2 = 1 | 1605.4 | 1594.2 | 1576.2 | 1550.2
m2 = 1.5 | 1658.6 | 1634.9 | 1601 | 1563.5
m2 = 2 | 1680.5 | 1652.1 | 1610 | 1566.4
m2 = 2.5 | 1686.3 | 1657 | 1611.3 | 1563.7
m2 = 3 | 1688.9 | 1661.4 | 1615.2 | 1564

[2H]O[2H] [water-d2] + C[N+](C)(C)C.[Br-]
speed of sound [m/s]
Details | 283.15 K | 298.15 K | 318.15 K | 338.15 K
m2 = 0.05 | 1352 | 1403 | 1443.9 | 1462.3
m2 = 0.075 | 1354.7 | 1405.2 | 1445.4 | 1463.6
m2 = 0.1 | 1357.5 | 1407.4 | 1447.1 | 1465.1
m2 = 0.2 | 1366.7 | 1414.7 | 1452.9 | 1469.8
m2 = 0.3 | 1376.5 | 1422.2 | 1458.6 | 1474.5
m2 = 0.5 | 1393.7 | 1436.4 | 1469.8 | 1484.1
m2 = 0.75 | 1414.4 | 1453.8 | 1483.7 | 1495.7
m2 = 1 | 1433.4 | 1470.2 | – | 1506.9
m2 = 1.5 | 1469.8 | 1500.5 | 1521.2 | 1527.4
m2 = 2 | 1502.4 | 1528 | 1543.6 | 1546.4
m2 = 2.5 | 1532.1 | 1552.9 | 1564.3 | 1564.2
m2 = 3 | 1560.4 | 1575.5 | 1583.5 | 1580.8

— the NIST ThermoML archive (doi:10.1021/je800908h)
